Entries after “also recorded” stand apart in the source; their conditions may differ.
Columns and labels:
[1] = system: acetic acid-induced abdominal stretching in male ICR mice; experiment: acetic acid stretching test; assay type: in vivo, mouse; conditions: for effect on abdominal stretching given alone: 3 mg/kg i.p.; for blockade of the antinociceptive effects of Δ9-THC: antagonist 3 mg/kg i.p. 10 min before Δ9-THC 3 mg/kg s.c.; for antinociceptive effect given alone (abdominal stretching): 1 h before acetic acid; for blockade of the antinociceptive effects of Δ9-THC by THCV: THCV 50 mg/kg s.c. with Δ9-THC 3.0 mg/kg s.c.
[2] = system: locomotor activity of male ICR mice; experiment: spontaneous locomotor activity; assay type: in vivo, mouse; conditions: for % Time Immobile / Total Distance Traveled: 60 min before, 20 min, mean ± SEM
[3] = target: CB1 receptor (Rattus norvegicus, UniProt P20272); experiment: cannabinoid receptor binding, displacement of [3H]-CP-55,940 from whole brain
Sequence of CB1 receptor (P20272 whole entry): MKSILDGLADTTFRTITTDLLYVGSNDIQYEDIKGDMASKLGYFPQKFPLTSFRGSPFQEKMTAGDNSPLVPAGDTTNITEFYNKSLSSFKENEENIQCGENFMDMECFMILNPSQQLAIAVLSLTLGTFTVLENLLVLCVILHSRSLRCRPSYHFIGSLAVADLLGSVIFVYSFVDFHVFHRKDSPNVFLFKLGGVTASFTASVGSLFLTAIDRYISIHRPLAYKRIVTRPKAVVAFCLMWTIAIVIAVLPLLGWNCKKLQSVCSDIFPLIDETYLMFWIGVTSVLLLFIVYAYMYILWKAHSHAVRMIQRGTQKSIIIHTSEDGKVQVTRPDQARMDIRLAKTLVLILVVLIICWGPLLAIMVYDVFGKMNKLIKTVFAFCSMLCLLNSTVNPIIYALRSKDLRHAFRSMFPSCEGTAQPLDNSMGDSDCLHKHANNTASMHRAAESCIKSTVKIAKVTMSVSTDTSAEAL

SR144528
effect on abdominal stretching given alone [1]: did not significantly affect abdominal stretching behavior; also recorded: Neither

CCCCCc1cc(O)c2c(c1)OC(C)(C)[C@@H]1CCC(C)=C[C@@H]21 [Δ^9-THC, Δ^9-tetrahydrocannabinol]
% Time Immobile ([2]; 1.0 mg/kg s.c.): 11.2 ± 2.2%
Total Distance Traveled ([2]; 1.0 mg/kg s.c.): 41.79 ± 2.63 m
% Time Immobile ([2]; 3.0 mg/kg s.c.): 21.5 ± 5.0%
Total Distance Traveled ([2]; 3.0 mg/kg s.c.): 43.59 ± 4.70 m
effect on locomotor activity ([2]; 3 mg/kg s.c., 60 min pretreatment, compared to vehicle): did not significantly interfere with locomotor activity
% Time Immobile ([2]; 10.0 mg/kg s.c.): 37.6 ± 9.2%
Total Distance Traveled ([2]; 10.0 mg/kg s.c.): 45.86 ± 7.76 m
% Time Immobile ([2]; 50.0 mg/kg s.c.): 49.0 ± 6.8 %
Total Distance Traveled ([2]; 50.0 mg/kg s.c.): 35.34 ± 3.61 m
effect on mobility ([2]; doses less than 50 mg/kg s.c.): did not impair mobility
ED50 ([1]; Mus musculus, read-out: ED50, suppression of abdominal stretching): 1.1 mg/kg
minimal (required) dose that produced antinociception ([1]; s.c.): 1 mg/kg

Cc1c(C(=O)NN2CCCCC2)nn(-c2ccc(Cl)cc2Cl)c1-c1ccc(Cl)cc1 [rimonabant]
effect on abdominal stretching given alone [1]: did not significantly affect abdominal stretching behavior; also recorded: Neither
blockade of the antinociceptive effects of CBN ([1]; antagonist 3 mg/kg i.p. 10 min before CBN 50 mg/kg s.c.): blocked by rimonabant; also recorded: significantly blocked the antinociceptive effects
blockade of the antinociceptive effects of Δ9-THC [1]: blocked the antinociceptive effects
blockade of the antinociceptive effects of Δ9-THC ([1]; listed as Rimonabant): significantly blocked

C=C(C)[C@@H]1CCC(C)=C[C@H]1c1c(O)cc(CCCCC)cc1O [CBD, cannabidiol]
antinociceptive effect given alone (abdominal stretching) ([1]; high doses, s.c.): did not produce antinociceptive effects

CCCCCc1cc(O)c2c(c1)OC(C)(CCC=C(C)C)C=C2 (centres unmarked) [CBC, cannabichromene]
antinociceptive effect given alone (abdominal stretching) ([1]; high doses, s.c.): did not produce antinociceptive effects

CCCCCc1cc(O)c2c(c1)OC(C)(C)c1ccc(C)cc1-2 [CBN, cannabinol]
effect on locomotor activity ([2]; 50 mg/kg s.c., 60 min before recording): failed to inhibit locomotor activity; also recorded: did not affect mobility
% Time Immobile ([2]; 50.0 mg/kg s.c.): 17.6 ± 2.9%
Total Distance Traveled ([2]; 50.0 mg/kg s.c.): 39.02 ± 7.75 m
affinity at the CB1 receptor, fold lower than the affinity of Δ9-THC [3]: 2–3 fold
antinociceptive effect given alone (abdominal stretching) ([1]; 20 mg/kg s.c.): not at 20 mg/kg
antinociceptive effect given alone (abdominal stretching) ([1]; 50 mg/kg s.c.): significant antinociceptive effects; also recorded: significantly suppressed the stretching response
minimal (required) dose that produced antinociception ([1]; s.c.): 50 mg/kg

CCCc1cc(O)c2c(c1)OC(C)(C)[C@@H]1CC=C(C)C[C@@H]21 [THCV, Δ^8-tetrahydrocannabivarin]
antinociceptive effect given alone (abdominal stretching) ([1]; 50 mg/kg s.c.): had no affect on the frequency of stretching behavior; also recorded: failed to elicit antinociceptive effects; also recorded: had no effects on its own
blockade of the antinociceptive effects of Δ9-THC by THCV [1]: blocked the antinociceptive effects of Δ^9-THC
blockade of the antinociceptive effects of Δ9-THC by THCV ([1]; listed as THC-V): significantly antagonized the antinociceptive effects
